From patent publication US20180369186A1, “METHOD FOR MODULATING AUTOPHAGY AND APPLICATIONS THEREOF” (JAWAHARLAL NEHRU CENTRE FOR ADVANCED SCIENTIFIC RESEARCH, priority 2015, published 2018)

Legend:
α-synuclein toxicity = assay: S. cerevisiae α-synuclein toxicity model, growth assay; assay type: cell-based; conditions: 50 μM
Procedure: To screen small molecule library LOPAC1280 in S. cerevisiae SNCA toxicity model, working plates containing 50 μM drugs in 1.5% DMSO (190 compounds/plate) are prepared in a 384 well format. WT SNCA-GFP with or without small molecules and untreated WT GFP are grown under optimized conditions (80 μl, 30° C. and 420 rpm) for 36 h in a plate reader (Varioskan Flash, Thermo Scientific) in duplicates with automatic absorbance (A600) recording every 20 min. Growth curves of untreated WT GFP and WT SNCA-GFP strains are plotted and mid to late exponential phase time point of untreated WT GFP strain is chosen as reference for data analysis. Its corresponding time point of untreated and drug treated WT SNCA-GFP strains are plotted separately in a box plot. Small molecules that rescued the growth lag by ≥3 SD units of untreated WT SNCA-GFP strain are considered as ‘Hits’.
(§1) Growth assays: In a 384 well plate, appropriate yeast strains are seeded (A600˜0.07) with and without drugs and incubated (80 μl, 30° C. and 420 rpm) in a multiplate reader (Varioskan Flash, Thermo Scientific) for 48 h with automatic absorbance (A600) recording every 20 min. Growth curves are plotted and analyzed using GraphPad Prism.
Induction of α-synuclein-EGFP aggregates: To induce α-synuclein-EGFP aggregates, the corresponding strains are inoculated in SD-Ura medium, Secondary culture is inoculated from primary inoculum and incubated till A600 reaches 0.8/ml. Cells are washed twice with sterile water and aggregates are induced by adding SG-Ura for 12-16 h.
To screen small molecule library LOPAC^1280 in S. cerevisiae α-synuclein toxicity model, working plates containing 50 μM drugs (small molecule) in 1.5% DMSO (190 compounds/plate) are prepared in a 384 well format. WT α-synuclein-EGFP with and without small molecules and untreated WT EGFP are grown under optimized conditions (80 μl, 30° C. and 420 rpm) for 36 h in a plate reader (Varioskan Flash, Thermo Scientific) in duplicates with automatic absorbance (A600) recording every 20 min.
Growth curves of untreated WT EGFP and WI α-synuclein-EGFP strains are plotted and mid to late exponential phase time point of untreated WT EGFP strain is chosen as reference for data analysis. Its corresponding time point of untreated and drug treated WT α-synuclein-EGFP strains are plotted separately in a box plot.
(§2) Appropriate yeast strains are seeded (A600 ˜0.07) with or without drugs in a 384-well plate and incubated (420 rpm, 30° C. and 80 μl) in a multiplate reader (Varioskan Flash, Thermo Scientific) for 48 h that records absorbance (A600) automatically for every 20 min. Growth curves are plotted using GraphPad Prism.

yeast cells = assay: Yeast growth assay (WT EGFP cells); assay type: cell-based, S. cerevisiae; conditions: 50 μM
Procedure: as §1, §2

[1] = tested on: TH+ dopaminergic neurons in SNpc; assay: MPTP mouse model: TH+ dopaminergic neurons in SNpc (stereology, densitometry, volume); assay type: in vivo, mice
Procedure: As described by Vernice Jackson-Lewis & Serge Przedborski (2007), 23.4 mg/kg MPTP.HCl (equivalent to 20 mg/kg free base) in 10 ml/kg body wt. of saline is administered intraperitoneally (i.p.) for 4 times at 2 h intervals.
All mice are sacrificed 9 days post MPTP administration and brains are processed for immunohistochemistry.
Mice are anaesthetized using Halothane BP (Piramal Healthcare) inhalation and perfused intracardially with normal saline followed by 4% PFA in 0.1 M phosphate buffer, pH 7.4. Brains are removed quickly and post-fixed with 4% PFA for 24 h-48 h at 4° C. Following cryoprotection in 15% and 30% sucrose, 40 μm thick coronal cryosections of midbrain are collected serially on gelatinized slides. Immunoperoxidase labelling protocol as identical to that reported. Briefly, endogenous peroxidase is quenched using H2O2 (0.1%) in methanol (70%), followed by blocking of non-specific staining by buffered solution (3%) of bovine serum albumin for 4 h at room temperature. Sections are incubated with TH primary antibody (1:500) followed by biotin conjugated secondary antibody (1:200 dilution, Vector Laboratories). Tertiary labelling is performed with avidin-biotin complex solution (1:100, Vector Laboratories). Staining is visualized using 3′-3′-diaminobenzidine (0.05%) as a chromogen in a solution of 0.1M acetate imidazole buffer (pH 7.4) and H2O2 (0.1%). Negative controls are processed identically, except that primary antibody is replaced with dilution buffer.
As described by Y. Fu et al., SNpcis delineated using the 4× objective of Olympus BX61 Microscope (Olympus) equipped with Stereo Investigator Software Version 7.2 (MicroBrightField). Stereological quantification is performed using optical fractionator probe with slight modifications(P. A. Alladi et al.). Briefly, every sixth midbrain section containing SNpc is chosen and TH^+ cells are counted under 100× objective, with a regular grid interval of 22500 μm^2 (x=150 μm, y=150 μm) and counting frame with an area of 3600 μm^2 (x=60 μm, y=60 μm) (FIG. 10B). Mounted thickness is determined at every fifth site, averaging to 25 μm. Guard zone 4 μm is applied on either side, thus providing 17 μm of z-dimension within optical dissector. The quantification is performed starting with first anterior appearance of TH^+ neurons in SNpc to caudal most part. The SNpc volume is determined by planimetry (FIG. 10C) and total numbers of neurons according to mean measured thickness are noted.
High magnification images of TH stained nigral DAergic neurons, captured for offline assessment of Tyrosine Hydroxylase (TH) enzyme expression levels=used. Expression intensity is measured using a Windows based image analysis system (Q Win V3, Leica Systems). Cumulative mean is derived from the values obtained from sampling, approximately 200 DAergic neurons per animal. Intensity output is measured on a grey scale of 0-255, where 0 equals intense staining and 255 means absence of staining.
The mice are distributed into three groups' viz., vehicle, MPTP and MPTP+XCT 790 injected respectively. The vehicle group receives intraperitoneal injections of dimethyl sulfoxide (DMSO) injections i.e. the solvent. The MPTP group receives 23.4 mg/kg MPTP.HCl in 10 ml/kg body wt. of saline is administered intraperitoneally for 4 times at 2 h interval. The MPTP+XCT 790 group mice are injected with 5 mg/kg body wt, of XCT 790 dissolved in DMSO, alongside the first MPTP injection. […]

SMILES | rescue of growth lag due to α-synuclein toxicity (α-synuclein toxicity; WT α-synuclein-EGFP strain) | rescue of growth lag in autophagy mutants expressing α-synuclein (α-synuclein toxicity; atg1Δ, atg5Δ, atg8Δ, atg11Δ and atg15Δ) | effect on growth of yeast cells (yeast cells) | decrease in SNpc volume upon MPTP administration ([1]; 5 mg/kg i.p., Co and Pro groups) | rescue of growth lag, treated vs untreated (α-synuclein toxicity; WT α-syn cells) [fold] | prevention of SNpc volume shrinkage ([1]; 5 mg/kg, MPTP+Co vs MPTP) | alleviation of MPTP induced dopaminergic neuronal loss ([1]; 5 mg/kg, co-administration with MPTP) [%]
O=C1Nc2cc(Br)ccc2/C1=C1/Nc2ccccc2/C1=N\O [6-Bio, (2′Z,3′E)-6-Bromoindirubin-3′-oxime] | rescues the growth lag | fails to rescue growth lag | does not affect the growth of yeast cells | not seen |  |  | 
COc1cc(C=C(C#N)C(=O)Nc2nnc(C(F)(F)F)s2)ccc1OCc1ccc(C(F)(F)F)cc1C(F)(F)F [XCT 790, 3-[4-(2,4-Bis-trifluoromethylbenzyloxy)-3-methoxyphenyl]-2-cyano-N-(5-trifluoromethyl-1,3,4-thiadiazol-2-yl)acrylamide] |  |  | does not affect the yeast growth |  | ~3.2 | approximately 85% | 80
